In patent EP0984967B1, “NAPHTHYRIDINE DERIVATIVES AND THEIR ANALOGUES INHIBITING CYTOMEGALOVIRUS” (BIOCHEM PHARMA INC, priority 1996, dated 1997):
Converted amounts (≈) assume the structure as drawn.

What was measured:
Assay type in all cases: cell-based
[1] = test system: HCMV virus; test: CMV plaque reduction assay
Procedure: The anti-CMV activity of test compounds was evaluated in a plaque reduction assay as follows: In 12-well tissue culture dishes, 1.5X10E5 or Hs68 cells (human […] fibroblast cell line) were plated per well with 2 ml of DMEM 10% fetal bovine serum and incubated in 5% CO2/air at 37°C overnight or until cells were ready. The medium was then removed and the cells inoculated with 0.5 ml (containing 200 pfu/ml diluted in DMEM 2% FBS) of HCMV virus in each well. After adsorption at 37°C for 2 hours, the virus was removed and cell monolayers were overlaid (1ml) with DMEM 2% FBS containing test compounds at various concentrations. The cells were then incubated at 37°C for 8 days, and then fixed with one volume (1ml) of formaldehyde 8%/water or PBS 1X for 30 minutes. The formaldehyde solution was removed and the cell monolayers were stained with crystal violet 2%/EtOH 20% for a few seconds and then rinsed with water. Monolayers were examined for the presence of plaques under a microscope, the percentage of plaque reduction determined for each compound by comparison with the untreated cells (no test compound) and the 50% inhibitory concentration (IC50) established. Ganciclovir was used as a positive control. Note: DMEM medium contained 1% glutamine and 1% pen/strep

[2] = Cytotoxicity assay ([3H]-methyl thymidine incorporation, cell proliferation); conditions: vero-34, hs-68 or wi-38; for CC50 at 48 h: 50% inhibitory concentration of cell proliferation, 48 hours with compound then 18 hours [3H]-methyl thymidine, cell line not given
Procedure: (§1) The cytotoxicity of test compounds was evaluated according to the following procedure: Flat bottom 96 well plates were plated with 5X10E3 Vero-34 cells/well and 1X10E4 Hs-68 or Wi-38 cells/well respectively and incubated overnight at 37°C and 5% CO2/air. After incubation, the supernatant medium was removed and replaced with test compound dilutions in 2% DMEM (150ul). The cells were then incubated 48 hours in a 5% CO2 incubator at 37°C. […] Cells were then collected onto a fiberglass filter (Printed Filtermat A 1450-421 Wallac) with a Tomtec cell harvester. Suspended cells were collected directly onto filter while for adherent cells, the medium was first removed, then the cells washed with PBS and trypsinized for 2-3 minutes (50µl trypsin/well) before collecting. Filters were dried for 1 hour at 37-40°C and then placed into bags (1450-microbeta # 1450-432 Wallac) with 4.5ml of Betascint and counts obtained with Microbeta 1450 Wallac (protocol 1). The percent of cell proliferation was determined by comparison to the control (no test compound) and thereby establishing 50% inhibitory concentration is established.

[3] = test system: Vero-34 cells, Hs-68 or Wi-38 cells; test: as above; conditions: 50% inhibitory concentration of cell proliferation, 48 hours with compound then 18 hours [3H]-methyl thymidine; cell line not given
Procedure: as §1

[4] = Human betaherpesvirus 5, 192 h, plaque reduction, HCMV in Hs68 cells (human foreskin fibroblast cell line), 8 days at 37°C

IC50 ([1]; Human betaherpesvirus 5, positive control tested in tandem with the compounds, plaque reduction assay)	Molecule	IC50 [1, 4]	CC50 at 48 h [2]	CC50 [3]	CC50 ([2]; positive control tested in tandem with the compounds, value varied between runs)
	O=C(NCc1ccccc1Br)c1ccc2cnccc2n1 [compound #5, N-(2-bromobenzyl)-2-(1,6)naphthyridinecarboxamide]	0.5 to 1 µg/mL (≈ 1.46 to 2.92 µM)	> 100 µg/mL		
	COc1cccc(CNC(=S)c2ccc3cnccc3n2)c1 [compound #41, [1,6]Naphthyridine-2-thiocarboxylic acid-3-methoxybenzylamine]	1 to 10 µg/mL (≈ 3.23 to 32.3 µM)	25 to 50 µg/mL (≈ 80.8 to 162 µM)		
	COc1ccccc1CNC(=O)c1ccc2cncc(Br)c2n1 [compound #35, 8-bromo-[1,6]naphthyridine-2-carboxylic acid (2-methoxybenzylamine)]	~0.01 µg/mL (≈ 0.0269 µM)	~12.5 µg/mL (≈ 33.6 µM)		
	Cl.NCCCCNC(=O)Nc1ccc2cnccc2n1 [compound #49, 1-(4-aminobutyl)-3-[1,6]naphthyridin-2-yl-urea hydrochloride]	1 to 5 µg/mL	6.25 to 12.5 µg/mL		
	O=C(NCc1ccc(Cl)cc1)c1ccc2cnccc2n1 [compound #8, N-(4-chlorobenzyl)-2-[1,6]naphthyridinecarboxamide]	1 to 10 µg/mL (≈ 3.36 to 33.6 µM)	6.25 to 10 µg/mL (≈ 21 to 33.6 µM)		
	O=C(NCc1ccccn1)c1ccc2cnccc2n1 [compound #18, [1,6]naphthyridine-2-carboxylic acid (pyridine-2-ylmethyl) amide]	5 to 25 µg/mL (≈ 18.9 to 94.6 µM)	> 100 µg/mL		
	CC(C)Oc1ccccc1CNC(=O)c1ccc2cncc(Br)c2n1 [compound #34, 8-bromo-[1,6]naphthyridine-2-carboxylic acid (2-isopropoxybenzylamine)]	0.1 to 1 µg/mL (≈ 0.25 to 2.5 µM)	~12.5 µg/mL (≈ 31.2 µM)		
	CC(C)Oc1ccccc1CNC(=O)Nc1ccc2cnccc2n1 [compound #47, 1-(2-iso-propoxybenzyl)-3-[1,6]naphthyridin-2-yl-urea]	0.01 to 0.1 µg/mL (≈ 0.0297 to 0.297 µM)	25 to 50 µg/mL (≈ 74.3 to 149 µM)		
	CCCCNC(=O)Nc1ccc2cnccc2n1 [compound #53, 1-butyl-3-[1,6]naphthyridin-2-yl-urea]	0.1 to 1 µg/mL (≈ 0.409 to 4.09 µM)	2.5 to 5 µg/mL (≈ 10.2 to 20.5 µM)		
	CC(C)Oc1ccccc1CNC(=S)c1ccc2cnccc2n1 [compound #40, [1,6]Naphthyridine-2-thiocarboxylic acid-2-isopropoxybenzylamine]	0.1 to 1 µg/mL (≈ 0.296 to 2.96 µM)	12.5 to 25 µg/mL (≈ 37 to 74.1 µM)		
	Cc1ccccc1NC(=O)Nc1ccc2cnccc2n1 [compound 56, 1-(2-methyl-phenyl)-3-[1,6]naphthyridin-2-yl-urea]		> 100 µg/mL		
	CCNc1ccccc1CNC(=O)c1ccc2cncc(Br)c2n1 [compound #33, 8-bromo-[1,6]naphthyridine-2-carboxylic acid (2-N-ethylaminobenzylamine)]	< 0.01 µg/mL	6.25 to 12.5 µg/mL (≈ 16.2 to 32.4 µM)		
	COC(=O)c1ccccc1CNC(=O)c1ccc2cnccc2n1 [compound #23, N-(2-methoxycarbonylbenzyl)-2-(1,6)naphthyridinecarboxamide]	< 5 µg/mL	> 100 µg/mL		
	CCOc1ccccc1CNC(=O)c1ccc2cnccc2n1 [compound #9, N-(2-ethyloxybenzyl)-2-(1,6)naphthyridinecarboxamide]	~0.1 µg/mL (≈ 0.325 µM)	~6.25 µg/mL (≈ 20.3 µM)		
	O=C(NCc1ccc(Br)cc1)c1ccc2cnccc2n1 [compound #3, N-(4-bromobenzyl)-2-(1,6)naphthyridi necarboxamide]	10 to 50 µg/mL (≈ 29.2 to 146 µM)	10 to 50 µg/mL (≈ 29.2 to 146 µM)		
	Nc1cccc(F)c1CNC(=O)c1ccc2cnccc2n1 [compound #16, N-(2-amino-6-fluorobenzyl)-2-[1,6]naphthyridinecarboxamide]	1 to 10 µg/mL (≈ 3.37 to 33.7 µM)	~25 µg/mL (≈ 84.4 µM)		
	CC(NC(=O)c1ccc2cnccc2n1)c1ccccc1 (centres unmarked) [compound #17, [1,6]naphthyridine-2-carboxylic acid (1-phenyl-ethyl) amide]	0.1 to 1 µg/mL (≈ 0.361 to 3.61 µM)	25 to 50 µg/mL (≈ 90.1 to 180 µM)		
	O=C(NCC1CCCCC1)c1ccc2cnccc2n1 [compound #19]	1 to 10 µg/mL (≈ 3.71 to 37.1 µM)	25 to 50 µg/mL (≈ 92.8 to 186 µM)		
	O=C(NCc1ccccc1C(F)(F)F)c1ccc2cnccc2n1 [compound #13, N-(2-trifluoromethylbenzyl)-2-(1,6)naphthyridinecarboxamide]	< 5 µg/mL	> 100 µg/mL		

IC50 ([1]; Human betaherpesvirus 5, positive control tested in tandem with the compounds, plaque reduction assay)	Molecule	IC50 [1, 4]	CC50 at 48 h [2]	CC50 [3]	CC50 ([2]; positive control tested in tandem with the compounds, value varied between runs)
	C[C@@H](NC(=O)Nc1ccc2cnccc2n1)c1ccccc1 [compound #51, 1-[(R)-α-methylbenzyl]-3-[1,6]naphthyridin-2-yl-urea]	0.01 to 0.1 µg/mL (≈ 0.0342 to 0.342 µM)	< 3.15 µg/mL		
	O=C(N[C@@H]1C[C@H]1c1ccccc1)c1ccc2cnccc2n1 (relative stereo) [compound #15, [1,6]naphthyridine-2-carboxylic acid (trans-2-phenyl-cyclopropyl)-amide]	1 to 10 µg/mL (≈ 3.46 to 34.6 µM)	~25 µg/mL (≈ 86.4 µM)		
	O=C(NCc1ccccc1)c1ccc2cnccc2n1 [compound #2, N-benzyl-2-(1,6)naphthyridinecarboxamide]	~1 µg/mL (≈ 3.8 µM)	~50 µg/mL (≈ 190 µM)		
	COc1cccc(CNC(=O)c2ccc3cnccc3n2)c1 [compound #12, N-(3-methoxybenzyl)-2-(1,6)naphthyridinecarboxamide]	< 5 µg/mL	> 100 µg/mL		
	C=CCNC(=O)c1ccc2cnccc2n1 [compound #24, (1,6)naphthyridine-2-carboxylic acid allylamide]	5 to 10 µg/mL (≈ 23.4 to 46.9 µM)	10 to 100 µg/mL (≈ 46.9 to 469 µM)		
	O=C(NCc1ccccc1F)c1ccc2cnccc2n1 [compound #7, N-(2-fluorobenzyl)-2-(1,6)naphthyridinecarboxamide]	< 5 µg/mL	~100 µg/mL (≈ 356 µM)		
	CSc1ccccc1CNC(=O)c1ccc2cnccc2n1 [compound #21, N-(2-methylthiobenzyl)-2-[1,6]naphthyridine carboxamide]	1 to 10 µg/mL (≈ 3.23 to 32.3 µM)	~50 µg/mL (≈ 162 µM)		
	O=C(NCc1cccc(Br)c1)c1ccc2cnccc2n1 [compound #6, N-(3-bromobenzyl)-2-(1,6)naphthyridinecarboxamide]	1 to 5 µg/mL (≈ 2.92 to 14.6 µM)	~50 µg/mL (≈ 146 µM)		
	Cc1ccccc1CNC(=O)c1ccc2cnccc2n1 [compound #1, N-(2-methylbenzyl)-2-(1,6)naphthyridinecarboxamide]	~1 µg/mL (≈ 3.61 µM)	50 to 75 µg/mL (≈ 180 to 270 µM)		
	O=C(c1ccc2cnccc2n1)N1CCc2ccccc2C1 [compound #20, (3,4-dihydro-1h-isoquinolin-2-yl)-[1,6]naphthyridin-2-yl-methanone]	5 to 25 µg/mL (≈ 17.3 to 86.4 µM)	> 100 µg/mL		
	N-(2propoxybenzyl)-2-[1,6]naphthyridine-2-carboxamide [compound #26]			~1.5 µg/mL	
	CC(C)(C)OC(=O)NCCCCNC(=O)Nc1ccc2cnccc2n1 [compound #48, 1-(N-boc-4-aminobutyl)-3-[1,6]naphthyridin-2-yl-urea]	0.1 to 1 µg/mL (≈ 0.278 to 2.78 µM)	3.15 to 6.25 µg/mL (≈ 8.76 to 17.4 µM)		
0.1 to 0.5 µg/mL (≈ 0.392 to 1.96 µM)	Nc1nc(O)c2ncn(COC(CO)CO)c2n1 [ganciclovir, reference compound]				10 to 200 µg/mL (≈ 39.2 to 784 µM)
	CC(C)Oc1ccccc1CNC(=O)c1ccc2cncc(-c3ccccn3)c2n1 [compound 57, 8-(2-pyridyl)-[1,6]naphthyridine-2-carboxylic acid (2-isopropoxybenzylamine)]	0.1 to 1 µg/mL (≈ 0.251 to 2.51 µM)	6 to 12.5 µg/mL (≈ 15.1 to 31.4 µM)		
	O=C(NCc1ccccc1Cl)c1ccc2cnccc2n1 [compound #4, N-(2-chlorobenzyl)-2-(1,6)naphthyridinecarboxamide]	0.5 to 1 µg/mL (≈ 1.68 to 3.36 µM)	~100 µg/mL (≈ 336 µM)		
	CC(C)Oc1ccccc1NC(=O)Nc1ccc2cnccc2n1 [compound #46, 1-(2-iso-propoxy-phenyl)-3-[1,6]naphthyridin-2-yl-urea]	~0.01 µg/mL (≈ 0.031 µM)	~25 µg/mL (≈ 77.6 µM)		
	COc1cccc(OC)c1CNC(=O)c1ccc2cnccc2n1 [compound #14, N-(2,6-dimethoxybenzyl)-2-(1,6)naphthyridinecarboxamide]	< 5 µg/mL	> 100 µg/mL		
	C[C@H](NC(=O)Nc1ccc2cnccc2n1)c1ccccc1 [compound #50, 1-[(S)-α-methylbenzyl]-3-[1,6]naphthyridin-2-yl-urea]	1 to 10 µg/mL (≈ 3.42 to 34.2 µM)	12.5 to 25 µg/mL (≈ 42.8 to 85.5 µM)		
	O=C(NCc1ccccc1O)c1ccc2cnccc2n1 [compound #22, N-(2-hydroxybenzyl)-2-(1,6)naphthyridinecarboxamide]	< 5 µg/mL	25 to 100 µg/mL (≈ 89.5 to 358 µM)		
